These results are taken from the kinase profiling compilation of Christmann-Franck et al. (2016).

Sequence of PKN1 (human) (Q16512 whole entry, looked up): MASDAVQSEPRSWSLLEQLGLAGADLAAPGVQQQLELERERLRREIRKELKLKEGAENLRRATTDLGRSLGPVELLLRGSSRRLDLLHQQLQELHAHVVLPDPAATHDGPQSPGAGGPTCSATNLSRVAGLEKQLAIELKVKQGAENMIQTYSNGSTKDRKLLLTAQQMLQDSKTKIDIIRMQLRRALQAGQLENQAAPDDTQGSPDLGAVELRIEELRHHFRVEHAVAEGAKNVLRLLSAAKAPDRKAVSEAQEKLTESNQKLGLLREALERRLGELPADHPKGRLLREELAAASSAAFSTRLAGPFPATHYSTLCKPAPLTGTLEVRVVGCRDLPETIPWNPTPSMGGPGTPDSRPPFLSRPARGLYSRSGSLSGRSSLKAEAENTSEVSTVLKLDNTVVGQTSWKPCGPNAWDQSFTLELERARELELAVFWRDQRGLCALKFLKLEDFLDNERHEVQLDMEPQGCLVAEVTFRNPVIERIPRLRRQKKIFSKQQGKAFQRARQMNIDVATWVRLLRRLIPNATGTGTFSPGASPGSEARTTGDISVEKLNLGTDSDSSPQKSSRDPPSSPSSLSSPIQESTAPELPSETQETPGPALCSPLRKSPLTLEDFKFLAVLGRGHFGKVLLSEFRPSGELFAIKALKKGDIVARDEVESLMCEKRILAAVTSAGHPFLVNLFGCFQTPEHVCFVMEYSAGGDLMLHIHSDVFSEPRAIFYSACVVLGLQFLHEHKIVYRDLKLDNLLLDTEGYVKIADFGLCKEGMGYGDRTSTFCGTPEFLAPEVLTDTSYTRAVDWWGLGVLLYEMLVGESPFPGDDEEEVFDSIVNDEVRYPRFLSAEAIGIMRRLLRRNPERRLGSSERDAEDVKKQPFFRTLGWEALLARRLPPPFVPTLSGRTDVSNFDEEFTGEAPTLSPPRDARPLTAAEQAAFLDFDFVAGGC
Sequence of BTK (human) (Q06187 whole entry, looked up): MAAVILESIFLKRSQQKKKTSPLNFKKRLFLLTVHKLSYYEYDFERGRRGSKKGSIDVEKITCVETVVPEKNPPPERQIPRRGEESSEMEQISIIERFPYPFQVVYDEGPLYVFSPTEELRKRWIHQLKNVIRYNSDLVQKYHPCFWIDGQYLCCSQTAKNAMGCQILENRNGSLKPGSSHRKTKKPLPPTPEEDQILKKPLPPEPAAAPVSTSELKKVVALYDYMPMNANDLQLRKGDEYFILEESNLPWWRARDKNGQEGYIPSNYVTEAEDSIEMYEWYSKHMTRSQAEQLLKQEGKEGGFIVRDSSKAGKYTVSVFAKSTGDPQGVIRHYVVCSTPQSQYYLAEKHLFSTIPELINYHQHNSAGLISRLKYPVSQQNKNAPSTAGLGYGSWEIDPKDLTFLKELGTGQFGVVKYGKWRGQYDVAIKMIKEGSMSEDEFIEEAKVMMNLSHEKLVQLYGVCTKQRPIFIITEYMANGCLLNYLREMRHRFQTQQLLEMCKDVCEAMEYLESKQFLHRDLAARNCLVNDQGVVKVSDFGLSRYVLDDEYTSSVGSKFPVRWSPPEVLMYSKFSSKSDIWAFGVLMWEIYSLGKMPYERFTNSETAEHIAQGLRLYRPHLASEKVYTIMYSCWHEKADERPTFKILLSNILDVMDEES
Sequence of GRK7 (human) (Q8WTQ7 whole entry, looked up): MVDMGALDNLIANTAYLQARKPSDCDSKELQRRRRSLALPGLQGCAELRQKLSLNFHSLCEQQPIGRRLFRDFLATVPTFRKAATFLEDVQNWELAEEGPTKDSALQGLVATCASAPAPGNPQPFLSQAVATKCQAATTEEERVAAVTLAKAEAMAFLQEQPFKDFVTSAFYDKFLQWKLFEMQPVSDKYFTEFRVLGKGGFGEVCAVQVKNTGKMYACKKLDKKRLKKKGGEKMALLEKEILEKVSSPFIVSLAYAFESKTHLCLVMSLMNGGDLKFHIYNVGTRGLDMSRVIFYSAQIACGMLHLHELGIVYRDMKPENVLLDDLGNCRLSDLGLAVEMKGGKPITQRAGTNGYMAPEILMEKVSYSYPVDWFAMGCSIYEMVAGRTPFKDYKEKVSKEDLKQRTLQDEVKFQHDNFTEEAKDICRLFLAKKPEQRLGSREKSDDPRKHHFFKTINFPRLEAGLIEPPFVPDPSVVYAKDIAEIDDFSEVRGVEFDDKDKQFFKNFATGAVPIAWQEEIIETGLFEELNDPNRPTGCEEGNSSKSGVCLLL

One test concerns the target EPHA1 (human) (UniProt P21709). Description: radiometric filter-binding kinase assay, Kinase HotSpot. Conditions: compound 0.5 µM; ATP 10 µM.
The residual activity is the signal under treatment as a percentage of the control signal. With `O=C(CCCc1ccc(-c2ccccc2F)cc1)Nc1ccc(O)cc1`, the residual activity was found to be 117%.
Same read-out and setting: for `CCN(CC)CCCCN1c2ccccc2Oc2ccc(Cl)cc21` the value was 90.5%; for `O=C(O)/C=C/c1cc(Br)c(Br)c(Br)c1Br`, 94.6%.

The target in a further test is TGFBR2 (human) (UniProt P37173). The description is as above. Conditions: compound 0.5 µM; ATP 10 µM.
Sequence of TGFBR2 (human) (P37173 whole entry, looked up): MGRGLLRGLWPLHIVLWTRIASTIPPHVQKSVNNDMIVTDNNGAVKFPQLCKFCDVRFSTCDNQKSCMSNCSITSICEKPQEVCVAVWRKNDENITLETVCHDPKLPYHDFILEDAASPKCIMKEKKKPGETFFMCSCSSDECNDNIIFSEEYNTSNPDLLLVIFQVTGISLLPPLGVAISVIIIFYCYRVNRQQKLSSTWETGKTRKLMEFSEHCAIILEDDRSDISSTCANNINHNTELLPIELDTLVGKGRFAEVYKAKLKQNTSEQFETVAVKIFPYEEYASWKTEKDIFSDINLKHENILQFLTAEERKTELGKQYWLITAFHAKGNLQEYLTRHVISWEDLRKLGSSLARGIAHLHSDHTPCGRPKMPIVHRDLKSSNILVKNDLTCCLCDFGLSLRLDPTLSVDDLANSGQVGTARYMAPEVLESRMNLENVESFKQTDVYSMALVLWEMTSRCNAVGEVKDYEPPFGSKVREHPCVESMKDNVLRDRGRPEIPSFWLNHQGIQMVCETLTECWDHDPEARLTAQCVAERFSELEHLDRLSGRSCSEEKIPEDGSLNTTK
Consider `O=C(CCCc1ccc(-c2ccccc2F)cc1)Nc1ccc(O)cc1`, for which the residual activity is 101%.
For the compound `CCN(CC)CCCCN1c2ccccc2Oc2ccc(Cl)cc21`, the residual activity stood at 96%.
On the same count and under the same terms, for `O=C(O)/C=C/c1cc(Br)c(Br)c(Br)c1Br` the value was 85.7%.

The next test concerns the target GRK7 (human) (UniProt Q8WTQ7). Described as above. Conditions: compound 0.5 µM; ATP 10 µM.
Take `O=C(CCCc1ccc(-c2ccccc2F)cc1)Nc1ccc(O)cc1`: the residual activity was 109%.
Take `CCN(CC)CCCCN1c2ccccc2Oc2ccc(Cl)cc21`: the residual activity worked out at 96.2%.
Same read-out and setting: the figure for `O=C(O)/C=C/c1cc(Br)c(Br)c(Br)c1Br` is 105%.

The next test concerns the target BTK (human) (UniProt Q06187). The test is described as above. Conditions: compound 0.5 µM; ATP 10 µM.
`O=C(CCCc1ccc(-c2ccccc2F)cc1)Nc1ccc(O)cc1`: the residual activity came out at 98.2%.
The same measure, in the same setting: for `CCN(CC)CCCCN1c2ccccc2Oc2ccc(Cl)cc21` the value was 99.2%; for `O=C(O)/C=C/c1cc(Br)c(Br)c(Br)c1Br`, 97.8%.

For the next test, the target named is FGFR1 (human) (UniProt P11362). The description is as above. The conditions noted are these: compound 0.5 µM; ATP 10 µM.
In the case of `O=C(CCCc1ccc(-c2ccccc2F)cc1)Nc1ccc(O)cc1`, the residual activity was 98%.
On the same count and under the same terms, the figure for `CCN(CC)CCCCN1c2ccccc2Oc2ccc(Cl)cc21` is 105%; for `O=C(O)/C=C/c1cc(Br)c(Br)c(Br)c1Br` it is 95.2%.

For a further test, the target named is IKBKB (human) (UniProt O14920). The description is as above. The conditions noted are these: compound 0.5 µM; ATP 10 µM.
Sequence of IKBKB (human) (O14920 whole entry, looked up): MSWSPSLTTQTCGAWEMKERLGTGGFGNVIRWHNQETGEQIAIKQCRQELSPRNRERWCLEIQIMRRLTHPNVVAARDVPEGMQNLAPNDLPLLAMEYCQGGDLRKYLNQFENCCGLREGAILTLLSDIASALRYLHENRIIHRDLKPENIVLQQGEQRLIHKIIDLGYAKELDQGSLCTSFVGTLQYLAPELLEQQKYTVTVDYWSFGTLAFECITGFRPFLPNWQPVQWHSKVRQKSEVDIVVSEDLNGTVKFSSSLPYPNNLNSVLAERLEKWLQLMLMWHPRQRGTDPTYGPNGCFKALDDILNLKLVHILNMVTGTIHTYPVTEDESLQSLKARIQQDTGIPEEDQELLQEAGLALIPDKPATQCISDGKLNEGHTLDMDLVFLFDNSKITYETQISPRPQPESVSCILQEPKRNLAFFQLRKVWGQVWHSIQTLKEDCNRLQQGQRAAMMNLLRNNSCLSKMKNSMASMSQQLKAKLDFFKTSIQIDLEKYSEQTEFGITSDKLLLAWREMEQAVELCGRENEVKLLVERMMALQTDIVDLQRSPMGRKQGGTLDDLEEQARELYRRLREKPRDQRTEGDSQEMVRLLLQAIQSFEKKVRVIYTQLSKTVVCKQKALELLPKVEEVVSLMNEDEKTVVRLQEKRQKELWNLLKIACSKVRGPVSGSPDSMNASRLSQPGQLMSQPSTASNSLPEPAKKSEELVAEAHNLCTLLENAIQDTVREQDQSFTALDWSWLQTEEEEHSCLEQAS
Consider `O=C(CCCc1ccc(-c2ccccc2F)cc1)Nc1ccc(O)cc1`, for which the residual activity was 101%.
In the case of `CCN(CC)CCCCN1c2ccccc2Oc2ccc(Cl)cc21`, the residual activity stood at 96.6%.
Still for that read-out and setting: the figure for `O=C(O)/C=C/c1cc(Br)c(Br)c(Br)c1Br` is 95.7%.

The target in the next test is CSNK2A1 (human) (UniProt P68400). Described as above. The conditions noted are these: compound 0.5 µM; ATP 10 µM.
Sequence of CSNK2A1 (human) (P68400 whole entry, looked up): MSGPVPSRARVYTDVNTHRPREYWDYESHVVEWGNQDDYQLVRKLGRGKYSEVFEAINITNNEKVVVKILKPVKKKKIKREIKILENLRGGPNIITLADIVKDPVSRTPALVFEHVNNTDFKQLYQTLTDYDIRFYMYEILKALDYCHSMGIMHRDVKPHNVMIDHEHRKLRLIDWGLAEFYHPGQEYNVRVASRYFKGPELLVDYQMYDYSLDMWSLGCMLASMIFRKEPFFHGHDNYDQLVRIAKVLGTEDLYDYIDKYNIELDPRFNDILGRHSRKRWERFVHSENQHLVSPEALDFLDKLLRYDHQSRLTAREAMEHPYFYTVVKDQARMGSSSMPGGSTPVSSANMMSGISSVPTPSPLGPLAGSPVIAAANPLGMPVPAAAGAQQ
On to `O=C(CCCc1ccc(-c2ccccc2F)cc1)Nc1ccc(O)cc1`, for which the residual activity is 89.4%.
On the same count and under the same terms, the figure for `CCN(CC)CCCCN1c2ccccc2Oc2ccc(Cl)cc21` is 96.2%; for `O=C(O)/C=C/c1cc(Br)c(Br)c(Br)c1Br` it is 13.1%.

A further test has as its target CDK4 CCND3 (human) (UniProt P30281+P11802). The description is as above. The conditions noted are these: compound 0.5 µM; ATP 10 µM.
With `O=C(CCCc1ccc(-c2ccccc2F)cc1)Nc1ccc(O)cc1`, the residual activity is 110%.
The same measure, in the same setting: for `CCN(CC)CCCCN1c2ccccc2Oc2ccc(Cl)cc21` the value was 102%.
For the compound `O=C(O)/C=C/c1cc(Br)c(Br)c(Br)c1Br`, the residual activity stood at 97.9%.

Another test deals with MAP4K2 (human) (UniProt Q12851). The description is as above. Conditions: compound 0.5 µM; ATP 10 µM.
As for `O=C(CCCc1ccc(-c2ccccc2F)cc1)Nc1ccc(O)cc1`, the residual activity came out at 104%.
As for `CCN(CC)CCCCN1c2ccccc2Oc2ccc(Cl)cc21`, the residual activity came to 110%.
The same measure, in the same setting: for `O=C(O)/C=C/c1cc(Br)c(Br)c(Br)c1Br` the value was 89.3%.

Another test addresses BLK (human) (UniProt P51451). Described as above. The conditions noted are these: compound 0.5 µM; ATP 10 µM.
Regarding `O=C(CCCc1ccc(-c2ccccc2F)cc1)Nc1ccc(O)cc1`, the residual activity came to 101%.
Still for that read-out and setting: for `CCN(CC)CCCCN1c2ccccc2Oc2ccc(Cl)cc21` the value was 106%.
On the same count and under the same terms, the figure for `O=C(O)/C=C/c1cc(Br)c(Br)c(Br)c1Br` is 95.1%.

Another test has as its target MAP4K5 (human) (UniProt Q9Y4K4). The test is described as above. The conditions noted are these: compound 0.5 µM; ATP 10 µM.
Consider `O=C(CCCc1ccc(-c2ccccc2F)cc1)Nc1ccc(O)cc1`, for which the residual activity stood at 94.1%.
Still for that read-out and setting: for `CCN(CC)CCCCN1c2ccccc2Oc2ccc(Cl)cc21` the value was 93.4%; for `O=C(O)/C=C/c1cc(Br)c(Br)c(Br)c1Br`, 80.3%.

The target in the next test is KIT (human) (UniProt P10721). The test is described as above. The conditions noted are these: compound 0.5 µM; ATP 10 µM.
Sequence of KIT (human) (P10721 whole entry, looked up): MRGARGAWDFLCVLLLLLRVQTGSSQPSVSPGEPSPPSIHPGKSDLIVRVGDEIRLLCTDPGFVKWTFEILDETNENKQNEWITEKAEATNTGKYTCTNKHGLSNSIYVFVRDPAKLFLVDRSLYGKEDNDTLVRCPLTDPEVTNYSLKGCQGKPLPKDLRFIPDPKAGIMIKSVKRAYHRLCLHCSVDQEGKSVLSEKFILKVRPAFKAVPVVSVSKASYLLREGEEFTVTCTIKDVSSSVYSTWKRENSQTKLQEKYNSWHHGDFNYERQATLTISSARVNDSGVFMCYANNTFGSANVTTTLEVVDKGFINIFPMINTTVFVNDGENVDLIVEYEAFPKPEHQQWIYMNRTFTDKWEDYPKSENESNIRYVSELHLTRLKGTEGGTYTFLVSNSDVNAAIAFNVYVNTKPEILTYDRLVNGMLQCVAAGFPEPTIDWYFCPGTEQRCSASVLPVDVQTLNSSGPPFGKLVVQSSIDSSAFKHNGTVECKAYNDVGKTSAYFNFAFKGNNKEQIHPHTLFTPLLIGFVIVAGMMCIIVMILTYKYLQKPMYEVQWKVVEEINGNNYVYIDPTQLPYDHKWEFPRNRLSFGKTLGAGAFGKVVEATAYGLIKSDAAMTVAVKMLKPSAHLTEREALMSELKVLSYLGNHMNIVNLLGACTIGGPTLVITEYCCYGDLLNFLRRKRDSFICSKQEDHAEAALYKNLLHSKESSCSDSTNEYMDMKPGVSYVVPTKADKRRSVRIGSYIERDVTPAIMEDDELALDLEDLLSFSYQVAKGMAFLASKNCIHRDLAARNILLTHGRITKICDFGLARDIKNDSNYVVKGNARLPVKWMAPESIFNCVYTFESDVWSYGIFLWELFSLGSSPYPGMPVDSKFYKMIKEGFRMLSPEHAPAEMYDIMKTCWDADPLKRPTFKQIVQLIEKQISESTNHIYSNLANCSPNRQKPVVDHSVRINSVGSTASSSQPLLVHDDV
On to `O=C(CCCc1ccc(-c2ccccc2F)cc1)Nc1ccc(O)cc1`, for which the residual activity stood at 96.3%.
On the same count and under the same terms, for `CCN(CC)CCCCN1c2ccccc2Oc2ccc(Cl)cc21` the value was 107%.
Consider `O=C(O)/C=C/c1cc(Br)c(Br)c(Br)c1Br`, for which the residual activity came to 89.2%.

In another test the target is RPS6KA4 KD2 (human) (UniProt O75676). Described as above. The conditions noted are these: compound 0.5 µM; ATP 10 µM.
As for `O=C(CCCc1ccc(-c2ccccc2F)cc1)Nc1ccc(O)cc1`, the residual activity worked out at 103%.
As for `CCN(CC)CCCCN1c2ccccc2Oc2ccc(Cl)cc21`, the residual activity was found to be 80.8%.
With `O=C(O)/C=C/c1cc(Br)c(Br)c(Br)c1Br`, the residual activity is 103%.

A further test deals with GRK6 (human) (UniProt P43250). Described as above. The conditions noted are these: compound 0.5 µM; ATP 10 µM.
Turning to `O=C(CCCc1ccc(-c2ccccc2F)cc1)Nc1ccc(O)cc1`, the residual activity was found to be 104%.
In the case of `CCN(CC)CCCCN1c2ccccc2Oc2ccc(Cl)cc21`, the residual activity was found to be 88.4%.
For the compound `O=C(O)/C=C/c1cc(Br)c(Br)c(Br)c1Br`, the residual activity turned out to be 97.2%.

Another test concerns the target DSTYK (human) (UniProt Q6XUX3). Described as above. Conditions: compound 0.5 µM; ATP 10 µM.
Turning to `O=C(CCCc1ccc(-c2ccccc2F)cc1)Nc1ccc(O)cc1`, the residual activity was 103%.
With `CCN(CC)CCCCN1c2ccccc2Oc2ccc(Cl)cc21`, the residual activity turned out to be 106%.
Still for that read-out and setting: for `O=C(O)/C=C/c1cc(Br)c(Br)c(Br)c1Br` the value was 98.2%.

Another test concerns the target MAP3K7 TAB1 (human) (UniProt O43318+Q15750). The description is as above. Conditions: compound 0.5 µM; ATP 10 µM.
As for `O=C(CCCc1ccc(-c2ccccc2F)cc1)Nc1ccc(O)cc1`, the residual activity worked out at 105%.
Still for that read-out and setting: the figure for `CCN(CC)CCCCN1c2ccccc2Oc2ccc(Cl)cc21` is 102%; for `O=C(O)/C=C/c1cc(Br)c(Br)c(Br)c1Br` it is 98.4%.

Another test concerns the target IRAK1 (human) (UniProt P51617). The test is described as above. The conditions noted are these: compound 0.5 µM; ATP 10 µM.
In the case of `O=C(CCCc1ccc(-c2ccccc2F)cc1)Nc1ccc(O)cc1`, the residual activity was 100%.
The same measure, in the same setting: the figure for `CCN(CC)CCCCN1c2ccccc2Oc2ccc(Cl)cc21` is 118%; for `O=C(O)/C=C/c1cc(Br)c(Br)c(Br)c1Br` it is 94.4%.

A further test has as its target STK11 (human) (UniProt Q15831). The description is as above. Conditions: compound 0.5 µM; ATP 10 µM.
In the case of `O=C(CCCc1ccc(-c2ccccc2F)cc1)Nc1ccc(O)cc1`, the residual activity was found to be 97.4%.
As for `CCN(CC)CCCCN1c2ccccc2Oc2ccc(Cl)cc21`, the residual activity was determined as 94.4%.
Still for that read-out and setting: for `O=C(O)/C=C/c1cc(Br)c(Br)c(Br)c1Br` the value was 42.8%.

A further test has as its target PKN1 (human) (UniProt Q16512). The test is described as above. The conditions noted are these: compound 0.5 µM; ATP 10 µM.
Consider `O=C(CCCc1ccc(-c2ccccc2F)cc1)Nc1ccc(O)cc1`, for which the residual activity amounted to 105%.
Still for that read-out and setting: the figure for `CCN(CC)CCCCN1c2ccccc2Oc2ccc(Cl)cc21` is 89.6%.
Turning to `O=C(O)/C=C/c1cc(Br)c(Br)c(Br)c1Br`, the residual activity came out at 85.5%.

The next test deals with SIK2 (human) (UniProt Q9H0K1). The description is as above. Conditions: compound 0.5 µM; ATP 10 µM.
As for `O=C(CCCc1ccc(-c2ccccc2F)cc1)Nc1ccc(O)cc1`, the residual activity is 102%.
The same measure, in the same setting: the figure for `CCN(CC)CCCCN1c2ccccc2Oc2ccc(Cl)cc21` is 111%.
For `O=C(O)/C=C/c1cc(Br)c(Br)c(Br)c1Br`, the residual activity was 107%.

The next test addresses STK24 (human) (UniProt Q9Y6E0). Described as above. Conditions: compound 0.5 µM; ATP 10 µM.
Turning to `O=C(CCCc1ccc(-c2ccccc2F)cc1)Nc1ccc(O)cc1`, the residual activity came to 88.9%.
Consider `CCN(CC)CCCCN1c2ccccc2Oc2ccc(Cl)cc21`, for which the residual activity was 90%.
The same measure, in the same setting: the figure for `O=C(O)/C=C/c1cc(Br)c(Br)c(Br)c1Br` is 86.1%.
